Reference: patent US20240150286A1, “PEROXISOME PROLIFERATOR-ACTIVATED RECEPTOR GAMMA (PPARy) LIGANDS AND METHODS OF USE AS TREATMENTS FOR INSULIN RESISTANCE, OBESITY, FATTY LIVER DISEASE, AND TYPE 2 DIABETES” (The Board of Regents of the University of Oklahoma, priority 2022, published 2024)

Tests used:
[1] = test system: diet-induced obesity (DIO) mice; test: Glucose tolerance, insulin tolerance and serum biochemistry in DIO mice; format: in vivo, mouse
Protocol: (§1) C57BL/6J male mice were obtained from Jackson laboratory (Bar Harbor, ME) and maintained on a 12 h light (6:00 AM to 6:00 PM)—12 h dark (6:00 PM to 6:00 AM) cycle at an ambient temperature of 22±1° C. All animals had access to diet and water ad libitum. All procedures involving animals were approved by the Institutional Animal Care and Use Committee of the University of Oklahoma Health Science Center. All experiments were performed with age-matched male mice. The mice were fed a high-fat diet (HFD) (60% kcal fat, Bio-Serv, NJ, USA) starting from the age of 6 weeks until study end. […] Food intake was determined manually by measuring the amount of input food subtracting the amount of the food remaining in the food hopper and the crumbs on the bedding of the cage each day for three days during the 4th week of the treatment. Packed cell volume (PCV) was measured with blood drawn from tail on a LW Scientific E8 centrifuge (LW Scientific, Lawrenceville, Georgia, USA) microhematocrit centrifuge at the end of study. For all other measurements, the blood was drawn at the time of euthanization.
Intraperitoneal glucose tolerance test (ipGTT) was performed after 6-h fasting. Blood glucose levels were measured at 0, 15, 30, 60, and 120 min glucometer (OneTouch Ultra 2 Meter) after an intraperitoneal administration of glucose at dose of 1.5 g/kg body weight. Intraperitoneal insulin tolerance test (ipITT) was performed after 6 h fasting. Blood glucose levels were measured at 0, 15, 30, 60, and 120 min after an intraperitoneal administration of human insulin at dose of 1.2 IU/kg body weight.
Serum insulin (ALPCO, NH, USA), serum cholesterol TG (Cayman Chem., MI, USA) and FFAs (Bioassay system, CA, USA) were determined by ELISA.

[2] = test system: adipose tissues (iWAT, eWAT, BAT) of DIO mice; test: Adipose tissue analyses in DIO mice (pS273 Western, qRT-PCR, UCP1, histology, CLS); format: in vivo, mouse
Protocol: as §1
Liver, heart, bone, adipose tissues were dissected and immediately fixed in 4% paraformaldehyde (Sigma-Aldrich), paraffin embedded, and stained with hematoxylin and eosin. For Immunofluorescence staining, the eWAT and iWAT paraffin sections were incubated with primary antibody (rabbit polyclonal to F4/80 [1:500, Cat #: 70076], Cell Signaling Technology) overnight at 4° C. after deparaffinization. The slides were washed thrice with PBS with 0.2% Triton and then incubated in secondary antibody, Alexa 488 anti-rabbit (1:500, Jackson ImmunoResearch, PA) for 1.5 h at room temperature. Tissue sections were imaged on the Olympus Fluoview 1000 laser-scanning confocal microscope (Center Valley, PA).
(§2) Total RNA (2 μg) was isolated from tissues or cells using TRIzol reagents (Life Technologies) and reverse transcribed using oligo d(T) primers (New England Biosystems) and SuperScript IV reverse transcription kit (Applied Biosystems). qPCR was performed in a CFX96 Touch Real-Time PCR detection system using SYBR Green mix (Applied Biosystems). The amplification program was as follows: initial denaturation at 95° C. for 15 min, followed by 40 cycles of 95° C. for 15 s, 60° C. for 1 min, and 40° C. for 30 s. Relative mRNA expression was determined by the ΔΔCt method normalized to TBP mRNA. The sequences of primers used in this study were shown in Table 1 in U.S. Provisional Application Ser. No. 63/419,049, the entirety of which is incorporated herein by reference.
Proteins were extracted with RIPA buffer containing protease and phosphatase inhibitors (Thermo) and then centrifuged for 10 min at 10,000 g. A 30 μg sample of protein was separated on a 10% SDS polyacrylamide gel and transferred to polyvinylidene-fluoride membrane for 1 h at 4° C. at 40 V. The membrane was blocked in TBS (10 mm Tris-HCl, pH 7.4, 150 mm NaCl) containing 5% non-fat dry milk for 1 h at room temperature and was probed with primary antibodies followed by the appropriate HRP-conjugated secondary antibodies (Anti-rabbit IgG, #7074, or Anti-mouse IgG, #7076, 1:5000 Cell Signaling Technology). The primary antibodies used were: anti-Ser-273 PPARγ (bs-4888R, Bioss Antibodies), anti-PPARγ antibody (sc-271392, Santa Cruz Biotechnology), anti-UCP1 (14670S, Cell Signaling Technology, Beverly, MA, USA).

[3] = test system: PPARγ S273 phosphorylation; test: PPARγ S273 phosphorylation and phosphorylation-dependent genes in 3T3-L1 differentiated adipocytes; format: cell-based, mouse
Protocol: as §2, with “mRNA.” for “mRNA. The sequences of primers used in this study were shown in Table 1 in U.S. Provisional Application Ser. No. 63/419,049, the entirety of which is incorporated herein by reference.”

[4] = test system: diet-induced obesity (DIO) mice; test: TZD-associated side effects in DIO mice (PCV, heart weight, cardiac and bone genes); format: in vivo, mouse
Protocol: as §1
as §2, with “mRNA.” for “mRNA. The sequences of primers used in this study were shown in Table 1 in U.S. Provisional Application Ser. No. 63/419,049, the entirety of which is incorporated herein by reference.”

[5] = SVF of inguinal and epididymal adipose tissues, DIO mice
[6] = eWAT of DIO mice, 15 mg/kg i.p. daily 4 weeks

In the case of Cc1c(C)n(Cc2ccc(-c3ccccc3C(=O)O)cc2)c2ccc(C(=O)NCc3cccc(O)c3)cc12 [WO95E, 4′-((5-((3-hydroxybenzyl)carbamoyl)-2,3-dimethyl-1H-indol-1-yl)methyl)-[1,1′-biphenyl]-2-carboxylic acid], the “serum level of free fatty acid” value ([1]; 15 mg/kg i.p. daily 4 weeks) was “decreased”, the total serum cholesterol ([1]; 15 mg/kg i.p. daily 4 weeks) was “downward trend but did not reach statistically significant” and the triglyceride level ([1]; 15 mg/kg i.p. daily 4 weeks, data not shown) was “unchanged”. The “glucose tolerance (ipGTT, peak glucose and AUC)” value ([1]; 15 mg/kg i.p. daily, 2 weeks, vs vehicle) was “significantly improved”, the “insulin sensitivity (ipITT)” value ([1]; 15 mg/kg i.p. daily, 2.5 weeks, vs vehicle) was “enhanced” and the “fasting and refeeding plasma levels of insulin” value ([1]; 15 mg/kg i.p. daily, vs vehicle) was “markedly decreased”. The “PPARγ S273 phosphorylation in iWAT” value ([2]; DIO mice, 15 mg/kg i.p. daily 4 weeks, Western blot) was “markedly inhibited”, the “mRNA levels of browning/thermogenic genes (Prdm16, Cidea, Ppara, CPT1a, UCP1, Cox5b, PGC1α) in iWAT” value ([2]; DIO mice, 15 mg/kg i.p. daily 4 weeks, vs vehicle) was “significantly increased” and the “adipocyte size in eWAT and iWAT” value ([2]; DIO mice, H&E sections, vs vehicle) was “significantly smaller”. For the same compound, the “UCP1 protein in iWAT and eWAT” value ([2]; DIO mice, Western blotting) was “dramatic induction”, the “UCP1 protein in BAT” value ([2]; DIO mice, data not shown) was “an increase” and the “mRNA levels of thermogenic genes in BAT” value ([2]; DIO mice, data not shown) was “increased mRNA expression levels of most of these genes”. The “areas of crown-like structures (CLS) in iWAT and eWAT” value ([2]; DIO mice, vs vehicle) was “dramatically reduced”, the “mRNA levels of M2 macrophage markers (IL4, IL10, Mg1I)” value [2, 5] was “up-regulated or unchanged” and the “mRNA levels of pan-macrophage markers (CD68, F4/80)” value [2, 5] was “significantly decreased”. The “genes involved in lipogenesis or adipogenesis” value [2, 6] was “inhibited”, the “mRNA levels of S273 phosphorylation-repressed genes (Adiponectin, Adipsin, selenbp1, Car3, Ddx-17, Acyl, Rarres2, Cidec)” value [2, 6] was “up-regulated” and the “mRNA levels of proinflammatory M1 mediators (TNFα, IL1b, IL-6, mcp-1)” value ([2]; iWAT and eWAT, DIO mice) was “down-regulated”. For the same compound, the “mRNA levels of PPARγ phosphorylation-dependent genes (adiponectin, cycp2f2, Ddx-17, Rarres2, Selenbp1)” value ([3]; 3T3-L1, 10 μM, qRT-PCR) was “upregulation”, the “S273 phosphorylation of PPARγ” value ([3]; 3T3-L1 differentiated adipocytes, TNFα 10 ng/ml 1 h, compounds at 10 μM, Western blot) was “significantly inhibited” and the “mRNA levels of bone formation genes (Bglap, SPP1, ColA1)” value ([4]; 4-week treatment) was “no apparent effect”. The “packed-cell volume (PCV)” value ([4]; indicator of hemodilution) was “unchanged”, the heart weight ([4]; relative to vehicle) was “no effect” and the “mRNA levels of Myh7 and Nppb in heart” value ([4]; vs vehicle) was “not significantly altered or even lowered”.
